Measured values as given in patent US20240246918A1, “COMPOUNDS AND COMPOSITIONS AS EIF4E INHIBITORS AND THE USES THEREOF” (Ribometrix, Inc., priority 2022, published 2024).

Key:
[1] = system: COLO 205 colorectal tumor cells; experiment: Tumor cell viability inhibition assay (CellTiter-Glo 2.0, 72 hours); assay type: cell-based; details: COLO 205 cell viability
In short: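 IC50 derived by 4-parameter fitting after normalizing luminescence to DMSO and max-inhibition wells. Compounds tested as 11 concentrations in 4-fold steps on COLO 205 cells seeded at 1500 per well in RPMI-1640/10% FBS; ATP content measured with CellTiter-Glo 2.0 after 72 h.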

human eIF4E protein = molecular target: T1, human eIF4E protein (Homo sapiens, UniProt P06730); experiment: Biochemical competitive binding assay (TR-FRET competition, EDA-m7GDP-ATTO-647N probe); details: read-out: hEIF4E TR-FRET IC50
T1 construct: purchased Novus NBP-45314
T1 sequence (P06730 whole entry): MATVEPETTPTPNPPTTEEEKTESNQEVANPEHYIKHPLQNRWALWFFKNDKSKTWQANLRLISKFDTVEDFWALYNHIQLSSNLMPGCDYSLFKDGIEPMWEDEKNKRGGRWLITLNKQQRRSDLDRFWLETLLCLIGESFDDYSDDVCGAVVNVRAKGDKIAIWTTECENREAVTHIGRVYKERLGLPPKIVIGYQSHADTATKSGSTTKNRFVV
In short: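 IC50 values come from 4-parameter fits of the normalized 665/620 nm TR-FRET ratio. Compound was first incubated 15 min with 4 nM recombinant His-eIF4E bound to 2.5 nM Eu-anti-His antibody, then 15 min with 5 nM m7GDP-ATTO-647N tracer, in pH 7.5 HEPES buffer with 100 mM KCl, Tween-20 and BSA.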

Structure (SMILES) | IC50 ([1]; Homo sapiens, COLO 205, 72 h) [µM] | IC50 (human eIF4E protein) [µM] | IC50 [1] [µM]
Cc1cc(-c2cc(Cl)ccc2OCCn2c(C)nc3c(c2=O)C[C@H](N2CCCC[C@H]2c2cccc(F)c2)CC32CC2)c2scc(C(=O)O)c2n1 (single isomer, unassigned) [Compound 626, 7-(5-chloro-2-(2-(6′-(2-(3-fluorophenyl)piperidin-1-yl)-2′-methyl-4′-oxo-6′,7′-dihydro-4′H-spiro[cyclopropane-1,8′-quinazolin]-3′(5′H)-yl)ethoxy)phenyl)-5-methylthieno[3,2-b]pyridine-3-carboxylic acid] | 5 to 20 | < 0.1 | 
Cc1cc(-c2cc(Cl)ccc2OCCn2c(C(F)(F)F)nc3c(c2=O)CC(N2CCC(OC(F)(F)F)CC2)CC3)c2scc(C(=O)O)c2n1 (single isomer, unassigned) [Compound 627] | > 20 | 0.5 to 5 | 
Cc1cc(-c2cc(Cl)ccc2OCCn2c(C)nc3c(c2=O)C[C@@H](N2CCCC[C@H]2c2cccc(F)c2)CC32CC2)c2scc(C(=O)O)c2n1 (single isomer, unassigned) [Compound 628, 7-(5-chloro-2-(2-(6′-(2-(3-fluorophenyl)piperidin-1-yl)-2′-methyl-4′-oxo-6′,7′-dihydro-4′H-spiro[cyclopropane-1,8′-quinazolin]-3′(5′H)-yl)ethoxy)phenyl)-5-methylthieno[3,2-b]pyridine-3-carboxylic acid] | < 5 | < 0.1 | 
Cc1cc(-c2cc(Cl)ccc2OCCn2c(C)nc3c(c2=O)C[C@@H](N2CCCC[C@@H]2c2cccc(F)c2)CC32CC2)c2scc(C(=O)O)c2n1 (single isomer, unassigned) [Compound 629, 7-(5-chloro-2-(2-(6′-(2-(3-fluorophenyl)piperidin-1-yl)-2′-methyl-4′-oxo-6′,7′-dihydro-4′H-spiro[cyclopropane-1,8′-quinazolin]-3′(5′H)-yl)ethoxy)phenyl)-5-methylthieno[3,2-b]pyridine-3-carboxylic acid] | 5 to 20 | 0.5 to 5 | 
Cc1cc(-c2cc(Cl)ccc2OCCn2c(C)nc3c(c2=O)C[C@@H](N2CCCC[C@H]2C(F)(F)F)CC32CC2)c2scc(C(=O)O)c2n1 (single isomer, unassigned) [Compound 630] | 5 to 20 | < 0.1 | 
Cc1cc(-c2cc(Cl)ccc2OCCn2c(C(F)(F)F)nc3c(c2=O)CC(N2CCC(OC(F)(F)F)CC2)CC3)c2scc(C(=O)O)c2n1 (single isomer, unassigned) [Compound 631] |  | 0.5 to 5 | > 20
Cc1cc(-c2cc(Cl)ccc2OCCn2c(C)nc3c(c2=O)CC(N2CCC4(CC2)CC4(F)F)CC32CC2)c2scc(C(=O)NS(C)(=O)=O)c2n1 (single isomer, unassigned) [Compound 632] | < 5 | < 0.1 | 
Cc1cc(-c2cc(Cl)ccc2OCCn2c(C)nc3c(c2=O)C[C@H](N2CCCC[C@H]2C(F)(F)F)CC32CC2)c2scc(C(=O)O)c2n1 (single isomer, unassigned) [Compound 633] | 5 to 20 | < 0.1 | 
Cc1cc(-c2cc(Cl)ccc2OCCn2c(C)nc3c(c2=O)C[C@H](N2CCCC[C@@H]2c2cccc(F)c2)CC32CC2)c2scc(C(=O)O)c2n1 (single isomer, unassigned) [Compound 634, 7-(5-chloro-2-(2-(6′-(2-(3-fluorophenyl)piperidin-1-yl)-2′-methyl-4′-oxo-6′,7′-dihydro-4′H-spiro[cyclopropane-1,8′-quinazolin]-3′(5′H)-yl)ethoxy)phenyl)-5-methylthieno[3,2-b]pyridine-3-carboxylic acid] | > 20 | 0.1 to 0.5 | 
COC1CCN([C@H]2CCc3nc(C)n(CCOc4ccc(Cl)cc4-c4cc(C)nc5c(C(=O)O)csc45)c(=O)c3[C@H]2C)CC1 (stereo in doubt) [Compound 102, 7-(5-chloro-2-(2-(6-(4-methoxypiperidin-1-yl)-2,5-dimethyl-4-oxo-5,6,7,8-tetrahydroquinazolin-3(4H)-yl)ethoxy)phenyl)-5-methylthieno[3,2-b]pyridine-3-carboxylic acid] | 5 to 20 | < 0.1 | 
COC1CCN([C@@H]2CCc3nc(C)n(CCOc4ccc(Cl)cc4-c4cc(C)nc5c(C(=O)O)csc45)c(=O)c3[C@@H]2C)CC1 (stereo in doubt) [Compound 103, 7-(5-chloro-2-(2-(6-(4-methoxypiperidin-1-yl)-2,5-dimethyl-4-oxo-5,6,7,8-tetrahydroquinazolin-3(4H)-yl)ethoxy)phenyl)-5-methylthieno[3,2-b]pyridine-3-carboxylic acid] | 5 to 20 | < 0.1 | 
Cc1cc(-c2cc(Cl)ccc2OCCn2c(C)nc3c(c2=O)C[C@](C)(N2C[C@@H]4CC(F)(F)C[C@@H]4C2)CC3)c2scc(C(=O)O)c2n1 (stereo in doubt) [Compound 566] | < 5 | < 0.1 | 
Cc1cc(-c2cc(Cl)ccc2OCCn2c(C)nc3c(c2=O)C[C@@](C)(N2C[C@@H]4CC(F)(F)C[C@@H]4C2)CC3)c2scc(C(=O)O)c2n1 (stereo in doubt) [Compound 567] | < 5 | < 0.1 | 
COc1cc(CN(CC(F)F)C2CCc3nc(C)n(CCOc4ccc(Cl)cc4-c4cc(C)nc5c(C(=O)O)csc45)c(=O)c3C2)ccn1 (centres unmarked) [Compound 112, 7-[2-[2-[6-[2,2-bis(fluorenyl)ethyl-[(2-methoxy-4-pyridyl)methyl]amino]-2-methyl-4-oxidanylidene-5,6,7,8-tetrahydroquinazolin-3-yl]ethoxy]-5-chloranyl-phenyl]-5-methyl-thieno[3,2-b]pyridine-3-carboxylic acid] | 5 to 20 | < 0.1 | 
COC1CCN(C2(C)CCc3nc(C)n(CCOc4ccc(Cl)cc4-c4cc(C)nc5c(C(=O)O)csc45)c(=O)c3C2)CC1 (centres unmarked) [Compound 114] | < 5 | < 0.1 | 
CCS(=O)(=O)C1CCN(C2CCc3nc(C)n(CCOc4ccc(Cl)cc4-c4cc(C)nc5c(C(=O)O)csc45)c(=O)c3C2)CC1 (centres unmarked) [Compound 115] | 5 to 20 | < 0.1 | 

Structure (SMILES) | IC50 ([1]; Homo sapiens, COLO 205, 72 h) [µM] | IC50 (human eIF4E protein) [µM] | IC50 [1] [µM]
Cc1nc2c(c(=O)n1CCOc1ccc(Cl)cc1-c1ccnc(CC(=O)O)c1)CC(N(C)CC1CC(F)(F)C1)CC2 (centres unmarked) [Compound 118] | > 20 | 0.5 to 5 | 
Cc1cc(-c2cc(Cl)ccc2OCCn2c(C)nc3c(c2=O)CC(N2CC(F)(F)C(F)(F)C2)CC3)c2scc(C(=O)O)c2n1 (centres unmarked) [Compound 119] | 5 to 20 | < 0.1 | 
Cc1cc(-c2cc(Cl)ccc2OCCn2c(C)nc3c(c2=O)C(C)(C)C(N)CC3)c2scc(C(=O)O)c2n1 (centres unmarked) [Compound 123, 7-(2-(2-(6-amino-2,5,5-trimethyl-4-oxo-5,6,7,8-tetrahydroquinazolin-3(4H)-yl)ethoxy)-5-chlorophenyl)-5-methylthieno[3,2-b]pyridine-3-carboxylic acid] | > 20 | 0.5 to 5 | 
Cc1cc(-c2cc(Cl)ccc2OCCn2c(C)nc3c(c2=O)CC(N2CCC(C(F)F)CC2)CC3)c2scc(C(=O)O)c2n1 (centres unmarked) [Compound 124] | < 5 | < 0.1 | 
[2H]C([2H])([2H])N(Cc1ccnc(OC)c1)C1CCc2nc(C)n(CCOc3ccc(Cl)cc3-c3cc(C)nc4c(C(=O)O)csc34)c(=O)c2C1 (centres unmarked) [Compound 125, 7-(5-chloro-2-(2-(6-(((2-methoxypyridin-4-yl)methyl)(methyl-d3)amino)-2-methyl-4-oxo-5,6,7,8-tetrahydroquinazolin-3(4H)-yl)ethoxy)phenyl)-5-methylthieno[3,2-b]pyridine-3-carboxylic acid] | < 5 | < 0.1 | 
Cc1cc(-c2cc(Cl)ccc2OCCn2c(C)nc3c(c2=O)CC(N2C4CCC2CC(F)(F)C4)CC3)c2scc(C(=O)O)c2n1 (centres unmarked) [Compound 126] | < 5 | < 0.1 | 
Cc1cc(-c2cc(Cl)ccc2OCCn2c(C)nc3c(c2=O)CC(N2CCC(c4cccc(C(F)(F)F)c4)CC2)CC3)c2scc(C(=O)O)c2n1 (centres unmarked) [Compound 127] | < 5 | < 0.1 | 
CCN(Cc1ccnc(OC)c1)C1CCc2nc(C)n(CCOc3ccc(Cl)cc3-c3cc(C)nc4c(C(=O)O)csc34)c(=O)c2C1 (centres unmarked) [Compound 129] | < 5 | < 0.1 | 
Cc1cc(-c2cc(Cl)ccc2OCCn2c(C)nc3c(c2=O)CC(N2CCC(c4cccs4)CC2)CC3)c2scc(C(=O)O)c2n1 (centres unmarked) [Compound 130] | < 5 | < 0.1 | 
Cc1cc(-c2cc(Cl)ccc2OCCn2c(C)nc3c(c2=O)CC(N2CCC(c4ccc(F)cc4)CC2)CC3)c2scc(C(=O)O)c2n1 (centres unmarked) [Compound 132] | < 5 | < 0.1 | 
COC1CCN(C2CCc3nc(C)n(CCOc4ccc(Cl)cc4-c4cc(C)nc5c(C(N)=O)csc45)c(=O)c3C2)CC1 (centres unmarked) [Compound 133] | 5 to 20 | 0.1 to 0.5 | 
COC1(C)CCN(C2CCc3nc(C)n(CCOc4ccc(Cl)cc4-c4cc(C)nc5c(C(=O)O)csc45)c(=O)c3C2)CC1 (centres unmarked) [Compound 134] | < 5 | < 0.1 | 
Cc1cc(-c2cc(Cl)ccc2OCCn2c(C)nc3c(c2=O)CC(N2CCc4nc[nH]c4C2)CC3)c2scc(C(=O)O)c2n1 (centres unmarked) [Compound 155] | > 20 | < 0.1 | 
Cc1cc(-c2cc(Cl)ccc2OCCn2c(C)nc3c(c2=O)CC(N)CC3)c2scc(C(=O)O)c2n1 (centres unmarked) [Compound 411] | < 5 | < 0.1 | 
Cc1cc(-c2cc(Cl)ccc2OCCn2c(C)nc3c(c2=O)CC(C)(N2CCC(OC(F)(F)F)CC2)CC3)c2scc(C(=O)O)c2n1 (centres unmarked) [Compound 536] | < 5 | < 0.1 | 
